Legend:
NPR1-GFP = target: T1, NPR1-GFP (Arabidopsis thaliana, UniProt P93002); assay: Subcellular localization of NPR1-GFP by confocal microscopy; format: in vivo; settings: 35S-NPR1-GFP eleven-day-old seedlings grown on MS with SA or INA
T1 construct: expressed in transfected cells; host or cells: Transgenic Arabidopsis npr1-1 and npr1-2 mutant plants (seedlings; leaf mesophyll and guard cells), CaMV 35S promoter
T1 sequence (P93002 1-593): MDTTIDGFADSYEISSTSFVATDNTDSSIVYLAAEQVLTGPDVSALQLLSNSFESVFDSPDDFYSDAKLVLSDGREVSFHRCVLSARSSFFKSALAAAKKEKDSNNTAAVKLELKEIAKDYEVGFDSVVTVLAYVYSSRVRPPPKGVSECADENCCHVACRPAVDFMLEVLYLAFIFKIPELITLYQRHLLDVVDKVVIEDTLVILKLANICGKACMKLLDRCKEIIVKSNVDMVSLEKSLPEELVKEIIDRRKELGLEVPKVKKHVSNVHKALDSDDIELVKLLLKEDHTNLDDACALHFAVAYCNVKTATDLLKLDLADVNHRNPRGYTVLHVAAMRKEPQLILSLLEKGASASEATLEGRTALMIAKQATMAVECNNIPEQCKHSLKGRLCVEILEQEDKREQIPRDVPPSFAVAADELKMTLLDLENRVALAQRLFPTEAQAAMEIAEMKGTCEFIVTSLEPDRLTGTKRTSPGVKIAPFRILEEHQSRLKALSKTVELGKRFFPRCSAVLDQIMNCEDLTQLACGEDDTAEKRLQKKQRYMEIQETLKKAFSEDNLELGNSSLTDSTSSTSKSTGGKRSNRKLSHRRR
Method: To elucidate the induction mechanism and the molecular function of the protein, the subcellular localization of NPR1 was determined by using standard reporter gene fusion construct analysis. The green fluorescent protein (GFP) gene was fused to the carboxyl end of the NPR1 cDNA driven by the constitutive CaMV 35S promoter, and the 35S-NPR1-GFP construct was used to transform npr1 mutants, npr1-1 and npr1-2, according to standard methods.
To examine the subcellular localization of the NPR1 protein, the 35S-NPR1-GFP and 35S-mGFP transgenic lines were grown in MS medium in the presence or absence of the SAR-inducing chemicals SA or INA. Eleven-day-old seedlings were subsequently examined using confocal microscopy to detect localization of NPR1-GFP and mGFP. […] In the 35S-mGFP transformants, green fluorescence was detected in the cytoplasm as well as in the nuclei, and SA and INA treatments had no effect on the localization of the protein. […] In the guard cells, the NPR1 protein was localized in the nuclei even without an SAR induction, an intriguing observation because constitutive activation of defense mechanisms in these cells may be necessary to fend off microbial pathogens from gaining entry into the plant through stomata. […] Consistent with this, the following two potential nuclear localization sequences (NLS's) were found in NPR1: […]

Arabidopsis thaliana = assay: Plant tolerance to SA or INA treatment (growth, symptoms); format: in vivo; settings: wild-type and npr1-1 plants; 1 mM SA, 0.65 mM INA
[1] = tested on: Pseudomonas syringae pv maculicola ES4326; assay: Growth of P.s. maculicola ES4326 in SA-/INA-pretreated plants; format: in vivo; settings: for growth of P.s. maculicola ES4326 lower than the untreated control / growth of P.s. maculicola ES4326: wild-type plants treated two days before infection; for growth of P.s. maculicola ES4326: 0 to 3.0 days after infiltration
[2] = tested on: Pseudomonas syringae pv maculicola ES4326; assay: SA-/INA-induced protection against P.s. maculicola ES4326 infection (disease symptoms); format: in vivo; settings: 1 mM SA or 0.65 mM INA two days before P.s. maculicola ES4326; for plants with chlorotic lesions: npr1-1 plants; for plants showing slight yellowing: wild-type plants
Method: To examine whether the lack of SA- or INA-induced PR gene expression would affect SAR protection against a virulent pathogen infection, fifteen-day-old wild-type and npr1-1 plants were treated with either 1 mM SA or 0.65 mM INA, and two days later were exposed to a P.s. maculicola ES4326 bacterial suspension. […] Chlorotic lesions developed in about ninety percent of the untreated wild-type control plants not pretreated with SA or INA. However, such SA- or INA-induced protection was not observed in npr1-1 mutant plants. Chlorotic lesions were clearly seen in over ninety-percent of untreated and at least eighty-percent of SA- or INA-treated plants. The symptoms on npr1-1 were also more severe than on the wild-type plants.

PR1 gene = assay: RNA blot analysis of PR1 induction; format: in vivo, Arabidopsis thaliana; settings: leaves in 0.5 mM INA for twenty-four hours, or SA
Method: Transformants of npr1-2 were grown (22° C. in fourteen hours of light) and selected on MS medium agar (Murashige and Skoog, Physiol Plant. 15:473-497, 1962) containing 2% sucrose, 50 μg/mL kanamycin, and 100 μg/mL ampicillin. Kanamycin-resistant transformants which developed true leaves and healthy roots were transplanted to soil. After two weeks of growth in soil at 22° C. in fourteen hours of light per day, leaves were collected from three transformants of each cosmid clone and soaked in 0.5 mM INA solution for twenty-four hours at 22° C. in fourteen hours of light per day. Leaf tissues were then collected and frozen in liquid nitrogen. Total RNA was extracted from these leaf tissues, and an RNA blot was prepared as described by Cao et al. (Plant Cell 6:1583-1592, 1994). The blot was probed with a PR1-specific probe (a PCR product obtained by amplifying genomic Arabidopsis DNA with PR1-specific primers (sense primer 5′ […]3′ (SEQ ID NO: 19); anti-sense primer 5′ […]3′ (SEQ ID NO: 20)).
These variations were likely to be the result of “position-effects,” the effect of the insertion site in the chromosome on the expression of the transgene. Cosmid clones 21A4-4-3-1, 21A4-6-1-1, 21A4-P5-1, and 21A4-2-1 restored the ability of the npr1-2 mutant to respond to INA induction and, therefore, complemented the npr1-2 mutation.
Transformants carrying each cosmid were also tested for SA induction of PR1 expression by RNA blot analysis Examples of SA induction are shown in FIG. 2A.

BGL2-GUS reporter gene = assay: Quantitative GUS assay of BGL2-GUS reporter plants grown on SA or INA; format: in vivo, Arabidopsis thaliana; settings: 0.5 mM SA, 0.1 mM INA
Method: The M2 seeds were germinated on MS medium with the addition of 0.8% agar, 0.5 mg/mL Mes (2-(N-morpholino)ethane-sulfonic acid), pH 5.7, 2% sucrose, 50 μg/mL kanamycin, and 100 μg/mL ampicillin. […] After incubation for fifteen days, each seedling to be assayed was numbered, and a single leaf was then removed from each seedling and put into the corresponding sample well of a ninety-six-well microtiter plate that contained 100 μL of […] (GUS) substrate solution (50 mM Na2HPO4, pH 7.0, 10 mM Na2EDTA, 0.1% Triton X-100, 0.1% sarkosyl, 0.7 μL/mL β-mercaptoethanol, and 0.7 mg/mL 4-methylumbelliferyl β-D-glucuronide). After all the samples were collected, the microtiter plate was placed under vacuum for two minutes to infiltrate the samples and then incubated at 37° C. overnight. Samples were examined for the fluorescent product of GUS activity (4-methylumbellifone) using a long-wavelength UV light. […] This procedure was repeated in the progeny of these putative mutants to ensure that the mutant phenotype was heritable and to identify the homozygous mutants.
To measure accurately the level of GUS activity, a quantitative GUS assay was performed on npr1-1 plants and the wild-type BGL2-GUS plants grown in the presence of either SA or INA, or in the absence of both. In the absence of an inducer, the background level of GUS activity was five-fold lower in the npr1-1 mutant than in the wild-type. […] Moreover, the induction by 0.1 mM INA was forty-eight-fold for the wild-type versus five-fold for npr1-1. Thus, while GUS activity in the SA- or INA-treated npr1-1 plants was somewhat induced, the activity was at most only slightly higher than the background level of the untreated wild-type.

SMILES	localization of NPR1-GFP upon induction (NPR1-GFP)	effect of treatment alone on plants (no infection) (Arabidopsis thaliana)	decrease in Psm ES4326 growth ([1]; npr1-2 mutant, 0.65 mM INA seventy-two hours prior to infection) [fold]	growth of P.s. maculicola ES4326 lower than the untreated control [1] [times]	growth of P.s. maculicola ES4326 [1]	inhibition of Psm ES4326 growth ([1]; wild-type plants, 0.65 mM INA seventy-two hours prior to infection (OD600=0.001))	plants with chlorotic lesions [2]	plants showing slight yellowing [2]	induction of PR1 gene expression (PR1 gene; npr1-2 mutant)	induction of PR1 gene expression (PR1 gene; wild-type parental line)	increase in GUS activity compared to the uninduced plants (BGL2-GUS reporter gene; npr1-1 plants)	increase in GUS activity compared to the uninduced plants (BGL2-GUS reporter gene; wild-type BGL2-GUS plants)
O=C(O)c1cc(Cl)nc(Cl)c1 [INA, 2,6-dichloroisonicotinic acid]	exclusively in the nuclei of both the mesophyll cells and the guard cells	minimal effect	~10	1000	about ten	Complete inhibition	at least eighty	less than ten	no induction	induction	five	forty-eight
O=C(O)c1ccccc1O [SA, salicylic acid]	exclusively in the nuclei of both the mesophyll cells and the guard cells	minimal effect	–	1000	about ten	–	at least eighty	less than ten	only a minor induction	high level of PR1 gene induction	seven	fifty-two

— patent US20020073447A1, “Acquired resistance genes and uses thereof” (priority 1996, published 2002)
